Assay results reported in PMC5793070, “Bacillibactin and Bacillomycin Analogues with Cytotoxicities against Human Cancer Cell Lines from Marine Bacillus sp. PKU-MA00093 and PKU-MA00092” (Marine Drugs, 2018).
Read-outs that look alike come from different tables or passages of the source. Numbered stars: 1 amine (or outer) side, 2 acyl side, 3 side chain; on linkers, the order of the positions; unused ones are H or OH. Square brackets hold non-standard residues; d marks the D form. Peptide text beside a SMILES is read from it. Hexadecanoyl(3R-amino) = CCCCCCCCCCCCC[C@H](CC(=O)[*:2])N[*:1]; X1 = CCC(C)CCCCCCCCCC[C@H](CC(=O)[*:2])N[*:1]; X3 = CC(C)CCCCCCCCCC[C@H](CC(=O)[*:2])N[*:1]

Columns and labels:
[1] = test system: liver cancer cell line HepG2; assay: MTT cytotoxicity assay against HepG2
Procedure: (§1) Two human cancer cell lines, liver cancer cell line HepG2, and breast cancer cell line MCF7, were used in the assays.
(§2) HepG2 and MCF7 cell lines were purchased from Peking Union Medical College, Cell Bank (Beijing, China). In this study, the cells were grown in Dulbecco’s modified Eagle’s medium (Hyclone, Waltham, MA, USA), supplemented with 10% fetal bovine serum (FBS, PAN Biotech, Aidenbach, Germany), penicillin (100 U/mL), and streptomycin (100 µg/mL) in a humidified incubator containing 95% air and 5% CO2 at 37 °C. Cell viability was detected by MTT colorimetric assay. Briefly, the cells were treated with different concentrations of compounds (in DMSO stock) for 48 h, with taxol as the positive control. Then, culture supernatants were replaced with medium containing 0.5 mg/mL MTT for 4 h. The supernatant was removed and 100 μL of dimethyl sulfoxide was added. Absorbance was detected at 550 nm and cell viability was expressed as the mean percentage of the absorbance in treated vs. control cells. Different concentrations of compounds ranging from 0.1 to 40 µM were tested and each of the concentration was tested in parallel triplicate. Six concentration points in the slope region were used in the calculation of IC50 values. The IC50 values were calculated from the concentration–response curves that were generated by nonlinear regression with Graph Pad Prism 5 software (Graph Pad Software, Inc., San Diego, CA, USA).

[2] = test system: breast cancer cell line MCF7; assay: MTT cytotoxicity assay against MCF7
Procedure: as §1, §2

[3] = test system: human cancer cell line A498; conditions: lipopeptide proposed as bacillomycin D only based on LC-MS analysis; result in words; cited from earlier work
Procedure: (§3) Compounds 1–10 were tested for their antitumor activities.

[4] = test system: human cancer cell line A549; conditions: lipopeptide proposed as bacillomycin D only based on LC-MS analysis; result in words; cited from earlier work
Procedure: as §3

[5] = test system: human cancer cell line HCT-15; conditions: lipopeptide proposed as bacillomycin D only based on LC-MS analysis; result in words; cited from earlier work
Procedure: as §3

Which IC50 ([1]; human, 48 h) does the source give for `CC(C)CCCCCCCCCC[C@@H]1CC(=O)N[C@@H](CC(N)=O)C(=O)N[C@H](Cc2ccc(O)cc2)C(=O)N[C@H](CC(N)=O)C(=O)N2CCC[C@H]2C(=O)N[C@@H](CCC(=O)O)C(=O)N[C@H](CO)C(=O)N[C@@H]([C@@H](C)O)C(=O)N1` [Compound 8, iso-C16 bacillomycin D] (cyclo(E[dS]T[X3]N[dY][dN]P)) here?
Its IC50 is 5.1 ± 0.2 µM.

What about the IC50 ([2]; human, 48 h) of the same compound?
The IC50 was 2.9 ± 0.1 µM.

Which IC50 ([1]; human, 48 h) does the source give for `CCCCCCCCCCCCC[C@@H]1CC(=O)N[C@@H](CC(N)=O)C(=O)N[C@H](Cc2ccc(O)cc2)C(=O)N[C@H](CC(N)=O)C(=O)N2CCC[C@H]2C(=O)N[C@@H](CCC(=O)O)C(=O)N[C@H](CO)C(=O)N[C@@H]([C@@H](C)O)C(=O)N1` [Compound 9, C16 bacillomycin D] (cyclo(E[dS]T[Hexadecanoyl(3R-amino)]N[dY][dN]P)) here?
The IC50 was 4.9 ± 0.2 µM.

And the IC50 ([2]; human, 48 h)?
Its IC50 is 3.3 ± 0.1 µM.

Which results are given for `CCC(C)CCCCCCCCCC[C@@H]1CC(=O)N[C@@H](CC(N)=O)C(=O)N[C@H](Cc2ccc(O)cc2)C(=O)N[C@H](CC(N)=O)C(=O)N2CCC[C@H]2C(=O)N[C@@H](CCC(=O)O)C(=O)N[C@H](CO)C(=O)N[C@@H]([C@@H](C)O)C(=O)N1` (stereo partly shown) [Compound 10, anteiso-C17 bacillomycin D] (cyclo(E[dS]T[X1]N[dY][dN]P))?
IC50 ([1]; human, 48 h): > 10 µM; IC50 ([2]; human, 48 h): 7.2 ± 0.2 µM

With `CC(=O)O[C@H]1C(=O)[C@@]2(C)[C@H]([C@H](OC(=O)c3ccccc3)[C@]3(O)C[C@H](OC(=O)[C@H](O)[C@@H](NC(=O)c4ccccc4)c4ccccc4)C(C)=C1C3(C)C)[C@]1(OC(C)=O)CO[C@@H]1C[C@@H]2O` [Taxol, reference compound] as the compound, how does the IC50 ([1]; Homo sapiens, HepG2, 48 h, read-out: Cytotoxicity (IC50 Values in µM), HepG2) read?
The IC50 was 0.075 ± 0.004 µM.

And the IC50 ([2]; Homo sapiens, MCF7, 48 h, read-out: Cytotoxicity (IC50 Values in µM), MCF7)?
The IC50 was 0.043 ± 0.003 µM.

With bacillomycin D [Compound 5] as the compound, how does the “inhibition rate, HepG2” value ([1]; HepG2, at the concentration of 10 µM, MTT, 48 h, described as no cytotoxicities) read?
Its value is “below 20%”.

And the “inhibition rate, MCF7” value ([2]; MCF7, at the concentration of 10 µM, MTT, 48 h, described as no cytotoxicities)?
Its value is “below 20%”.

What about the “inhibitory activities against A498” value [3] of the same compound?
The value was “inhibitory activities”.

And the “inhibitory activities against A549” value [4]?
Its value is “inhibitory activities”.

And the “inhibitory activities against HCT-15” value [5]?
Its value is “inhibitory activities”.
